Patent US20230295166A1, “ATR INHIBITORS AND USES THEREOF” (ANTENGENE DISCOVERY LIMITED, priority 2020, published 2023)
pIC50: −log10 of the molar value.

Columns and labels:
ATR kinase = ATR kinase (Homo sapiens (Human), UniProt Q13535); assay: ATR inhibition assay (mobility shift assay, phosphorylation of FAM-RAD17); format: biochemical; details: ATR kinase (Eurofins), substrate FAM-RAD17, mobility shift
Description: Assay 1: ATR Inhibition Assay
Detection of ATR kinase activity utilized the Mobility shift assay to measure the phosphorylation of the substrate protein FAM-RAD17 (GL, Cat. No. 514318, Lot. No. P19042-MJ524315). The assay was developed and conducted at Chempartner. All the test compounds were dissolved in 100% DMSO at concentration of 20 mM, then prepare compounds and conducted the assay as follows: • 1) Transfer 80 μl 20 mM compound to 40 μl of 100% DMSO in a 96-well plate. • 2) Serially dilute the compound by transferring 20 μl to 60 μl of 100% DMSO in the next well and so forth for a total of 10 concentrations. • 3) Add 100 μl of 100% DMSO to two empty wells for no compound control and no enzyme control in the same 96-well plate. Mark the plate as source plate. • 4) Transfer 40 μl of compound from source plate to a new 384-well plate as the intermediate plate. • 5) Transfer 60 nl compounds to assay plate by Echo. • 6) Add ATR kinase (Eurofins, Cat. No. 14-953, Lot. No. D14 JP007N) into Kinase base buffer (50 mM HEPES, pH 7.5; 0.0015% Brij-35; 0.01% Triton) to prepare 2× enzyme solution, then add 10 μl of 2× enzyme solution to each well of the 384-well assay plate, incubate at room temperature for 10 min. • 7) Add FAM-RAD17 and ATP (Sigma, Cat. No. A7699-1G, CAS No. 987-65-5) in the kinase base buffer to prepare 2×peptide solution, then add 10 μl to the assay plate. • 8) Incubate at 28° C. for specified period of time. Add 40 μl of stop buffer (100 mM HEPES, pH 7.5; 0.015% Brij-35; 0.2% Coating Reagent #3; 50 mM EDTA) to stop reaction. • 9) Collect data on Caliper. Convert conversion values to inhibition values.
Percent inhibition=(max−conversion)/(max−min)*100 wherein “max” stands for DMSO control; “min” stands for low control.
Fit the data in XLFit excel add-in version 5.4.0.8 to obtain IC50 values. Equation used is:
Y=Bottom+(Top−Bottom)/(1+(IC50/X)^HillSlope) wherein X means concentration in a format not transformed to logarithms.

LoVo (CCL-229) cells = assay: Tumor cell anti-proliferation assay (CTG assay); format: cell-based; details: LoVo human colorectal cancer cells, 96 h, CellTiter-Glo
In short: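 Cells seeded and held 20–24 h, then exposed to 3-fold serial dilutions of compound (final DMSO 0.5%) for 96 h at 37 °C, 5% CO2. Viability measured by CellTiter-Glo luminescence; IC50 and GI50 from a 4-parameter logistic fit.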

ATR kinase, sequence (Q13535 whole entry): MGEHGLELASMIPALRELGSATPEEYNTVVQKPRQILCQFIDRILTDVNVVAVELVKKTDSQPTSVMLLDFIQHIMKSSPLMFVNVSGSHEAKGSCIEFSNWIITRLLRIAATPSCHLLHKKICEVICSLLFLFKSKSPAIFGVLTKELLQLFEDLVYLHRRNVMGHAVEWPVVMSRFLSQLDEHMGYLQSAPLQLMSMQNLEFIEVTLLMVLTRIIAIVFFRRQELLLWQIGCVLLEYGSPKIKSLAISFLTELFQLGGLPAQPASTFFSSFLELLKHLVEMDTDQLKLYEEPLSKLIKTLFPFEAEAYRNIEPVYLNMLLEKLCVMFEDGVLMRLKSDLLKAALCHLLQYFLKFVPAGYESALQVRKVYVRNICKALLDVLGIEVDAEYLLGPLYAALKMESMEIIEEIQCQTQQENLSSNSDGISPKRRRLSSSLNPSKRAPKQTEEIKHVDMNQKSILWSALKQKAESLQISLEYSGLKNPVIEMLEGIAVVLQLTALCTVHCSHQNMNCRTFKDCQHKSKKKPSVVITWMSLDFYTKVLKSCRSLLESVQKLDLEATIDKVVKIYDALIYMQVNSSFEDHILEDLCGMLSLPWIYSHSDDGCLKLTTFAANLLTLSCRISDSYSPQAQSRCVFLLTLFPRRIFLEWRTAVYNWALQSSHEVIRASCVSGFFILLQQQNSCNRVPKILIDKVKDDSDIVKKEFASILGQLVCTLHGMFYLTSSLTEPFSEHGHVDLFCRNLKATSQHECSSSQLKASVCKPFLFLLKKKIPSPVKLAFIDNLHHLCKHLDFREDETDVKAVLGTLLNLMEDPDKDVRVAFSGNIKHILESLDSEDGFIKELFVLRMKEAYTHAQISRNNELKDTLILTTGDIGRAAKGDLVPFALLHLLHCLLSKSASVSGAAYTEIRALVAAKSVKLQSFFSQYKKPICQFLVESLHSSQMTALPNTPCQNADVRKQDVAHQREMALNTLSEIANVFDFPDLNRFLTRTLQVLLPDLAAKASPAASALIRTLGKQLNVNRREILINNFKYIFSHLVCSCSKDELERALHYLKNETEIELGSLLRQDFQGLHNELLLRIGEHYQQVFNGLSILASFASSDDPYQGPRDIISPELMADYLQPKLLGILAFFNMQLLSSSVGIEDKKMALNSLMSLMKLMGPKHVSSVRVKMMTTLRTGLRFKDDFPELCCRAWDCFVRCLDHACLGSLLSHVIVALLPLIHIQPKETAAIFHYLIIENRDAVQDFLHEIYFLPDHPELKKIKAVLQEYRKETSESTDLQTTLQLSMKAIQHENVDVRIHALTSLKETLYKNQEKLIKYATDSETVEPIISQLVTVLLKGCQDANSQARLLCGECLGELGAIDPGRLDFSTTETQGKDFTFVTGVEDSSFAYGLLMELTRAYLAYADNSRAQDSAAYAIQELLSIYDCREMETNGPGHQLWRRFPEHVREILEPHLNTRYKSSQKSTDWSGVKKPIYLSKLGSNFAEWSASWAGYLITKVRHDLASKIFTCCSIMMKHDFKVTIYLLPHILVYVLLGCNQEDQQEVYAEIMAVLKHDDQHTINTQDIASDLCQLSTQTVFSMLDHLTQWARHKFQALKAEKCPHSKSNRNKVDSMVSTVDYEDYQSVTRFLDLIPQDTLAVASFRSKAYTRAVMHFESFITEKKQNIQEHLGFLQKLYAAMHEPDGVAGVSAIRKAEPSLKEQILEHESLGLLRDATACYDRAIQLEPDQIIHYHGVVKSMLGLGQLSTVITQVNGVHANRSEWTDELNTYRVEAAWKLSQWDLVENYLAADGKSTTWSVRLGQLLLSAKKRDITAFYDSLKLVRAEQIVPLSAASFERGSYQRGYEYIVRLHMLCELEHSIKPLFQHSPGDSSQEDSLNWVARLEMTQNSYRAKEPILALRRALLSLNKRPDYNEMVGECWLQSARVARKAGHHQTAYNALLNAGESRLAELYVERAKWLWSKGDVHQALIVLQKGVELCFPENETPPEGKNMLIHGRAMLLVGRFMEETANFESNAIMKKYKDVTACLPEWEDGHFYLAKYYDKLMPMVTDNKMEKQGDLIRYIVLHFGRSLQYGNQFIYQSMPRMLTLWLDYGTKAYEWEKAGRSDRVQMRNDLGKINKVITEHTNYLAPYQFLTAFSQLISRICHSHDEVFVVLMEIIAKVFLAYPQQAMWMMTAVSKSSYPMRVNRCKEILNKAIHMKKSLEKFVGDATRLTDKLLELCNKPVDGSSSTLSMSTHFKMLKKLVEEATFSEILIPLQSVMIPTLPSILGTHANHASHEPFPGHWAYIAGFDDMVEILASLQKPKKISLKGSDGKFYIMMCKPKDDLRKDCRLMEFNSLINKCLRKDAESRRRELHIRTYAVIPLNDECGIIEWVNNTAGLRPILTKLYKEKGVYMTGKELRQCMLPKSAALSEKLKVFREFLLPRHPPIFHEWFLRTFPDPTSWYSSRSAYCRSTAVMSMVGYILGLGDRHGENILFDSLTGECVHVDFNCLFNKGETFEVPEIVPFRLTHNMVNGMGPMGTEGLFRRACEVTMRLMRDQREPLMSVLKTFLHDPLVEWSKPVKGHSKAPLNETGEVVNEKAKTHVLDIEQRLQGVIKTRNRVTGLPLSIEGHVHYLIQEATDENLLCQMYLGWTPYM
ATR kinase, sequence (Q8WXE1 whole entry partner): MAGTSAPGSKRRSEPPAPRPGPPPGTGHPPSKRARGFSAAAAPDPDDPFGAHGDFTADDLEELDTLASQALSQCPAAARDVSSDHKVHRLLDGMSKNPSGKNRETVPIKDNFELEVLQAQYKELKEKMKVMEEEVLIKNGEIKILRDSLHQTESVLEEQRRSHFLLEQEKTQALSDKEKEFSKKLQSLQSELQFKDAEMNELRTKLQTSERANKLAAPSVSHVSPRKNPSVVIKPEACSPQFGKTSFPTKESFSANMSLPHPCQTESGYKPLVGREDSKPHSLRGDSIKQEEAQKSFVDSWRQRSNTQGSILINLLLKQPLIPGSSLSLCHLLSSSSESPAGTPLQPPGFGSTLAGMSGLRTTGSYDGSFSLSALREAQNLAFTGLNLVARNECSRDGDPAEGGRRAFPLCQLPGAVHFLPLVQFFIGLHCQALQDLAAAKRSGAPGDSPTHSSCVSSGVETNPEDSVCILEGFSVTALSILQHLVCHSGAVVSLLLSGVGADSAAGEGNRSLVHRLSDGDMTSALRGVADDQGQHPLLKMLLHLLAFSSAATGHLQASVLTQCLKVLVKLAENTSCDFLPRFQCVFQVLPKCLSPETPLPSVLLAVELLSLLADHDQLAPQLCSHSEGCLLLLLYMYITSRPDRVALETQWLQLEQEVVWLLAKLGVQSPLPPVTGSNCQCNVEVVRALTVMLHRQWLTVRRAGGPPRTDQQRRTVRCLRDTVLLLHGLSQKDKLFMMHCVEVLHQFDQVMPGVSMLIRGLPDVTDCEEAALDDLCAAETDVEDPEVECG

Row | pIC50 (ATR kinase) | pIC50 (LoVo (CCL-229) cells) | SMILES
1 | > 7.00 | 7.17 | C[C@@H]1COCCN1c1cc(-c2ccnn2C)c2cnc(-c3ccn[nH]3)n2n1 [Example 27, (R)-3-methyl-4-(4-(1-methyl-1H-pyrazol-5-yl)-7-(1H-pyrazol-5-yl)imidazo[1,5-b]pyridazin-2-yl)morpholine]
2 | > 7.00 | 7.64 | Cc1cc(-c2ncc3c(-c4ccnn4C)cc(N4CCOC[C@H]4C)nn23)[nH]n1 [Example 34, (R)-3-methyl-4-(4-(1-methyl-1H-pyrazol-5-yl)-7-(3-methyl-1H-pyrazol-5-yl)imidazo[1,5-b]pyridazin-2-yl)morpholine]
